Source: patent US11260139B2, “Rapid surface disinfection method and apparatus” (priority 2011, dated 2022)

System: S. aureus bacteria
Test: survival of S. aureus bacteria on agar culture plates following 3 sec. exposure to atomized liquid
Format: cell-based
Settings: for antimicrobial effectiveness of the liquid as solvent of the nitric oxide solution: liquid atomized with NO, rank: ethanol>isopropanol>water
Description: The survival fraction is the fraction of at least 100 colonies that survive the treatment. Control plates were exposed to air for 3 sec. Ethanol plates were exposed to ethanol atomized with nitrogen. 25% NO plates were exposed to ethanol atomized with 25% NO and 75% nitrogen.
Experiments were conducted on agar culture plates to compare nitric oxide concentrations ranging from 0% in nitrogen (the ‘ethanol’ experiment) to 100% NO.

SMILES	effect of NO on the antimicrobial activity of the atomized liquid (NO concentrations 0% to 100% in nitrogen compared)	antimicrobial effectiveness of the liquid as solvent of the nitric oxide solution
[N]=O [NO, nitric oxide]	dramatically increases the antimicrobial activity	
CCO [ethanol]		effective
CC(C)O [isopropanol]		effective
O [water]		effective
